Measured values: patent US10221163B2 (priority 2015, dated 2019)
Where two headings read alike, the source gives them in different places.

What was measured:
IMP-1 = IMP-1 (Serratia marcescens, UniProt P52699); experiment: biochemical; format: biochemical; conditions: CCF2-FA substrate, 2 pM enzyme, 2 hours at 25° C.
In short: (§1)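 Fluorescence assay of metallo-β-lactamase activity using CCF2-FA, a cephalosporin-linked 7-hydroxycoumarin–fluorescein substrate. Inhibitor, enzyme and substrate were incubated together for 2 hours at 25° C. IC50 came from a 4-parameter fit of inhibition versus inhibitor concentration.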

NDM-1 = NDM-1 (Klebsiella pneumoniae, UniProt C7C422); experiment: biochemical; format: biochemical; conditions: fluorescence assay, CCF2-FA substrate, 1 pM enzyme, 2 hours at 25° C.; read-out: NDM-1 IC50
In short: as §1

VIM-1 = VIM-1 (Pseudomonas aeruginosa (strain ATCC 15692 / DSM 22644 / CIP 104116 / JCM 14847 / LMG 12228 / 1C / PRS 101 / PAO1), UniProt A0A0F7KYQ8); experiment: biochemical; conditions: CCF2-FA substrate, 30 pM enzyme, 2 hours at 25° C.
In short: as §1

[1] = system: Escherichia coli expressing NDM-1 (CLB30005, CLB30016); format: cell-based; conditions: NDM-1 strain, with imipenem 1 μg/ml, 95% inhibition of growth
In short: (§2)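 Growth by absorbance after 22–24 h at 35°C defined the read-out, with imipenem fixed at 1 μg/ml alongside compound. Inocula came from overnight blood-agar colonies at 35°C, resuspended in saline and diluted 1:100 in 1.1×CAMHB.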

[2] = system: Klebsiella pneumoniae expressing VIM-1 (IHMA599644); format: cell-based; conditions: VIM-1 strain IHMA599644, with imipenem 1 μg/ml, 95% inhibition of growth
In short: as §2

[3] = system: Serratia marcescens expressing IMP-1 (CL5741); format: cell-based; conditions: IMP-1 strain CL5741, with imipenem 1 μg/ml, 95% inhibition of growth
In short: as §2

[4] = system: Pseudomonas aeruginosa efflux+ (MB9798), IMP-1; format: cell-based; parameters: Concentration of metallo-β-lactamase inhibitor which restores susceptibility of efflux + (MB9798) strain to imipenem: unit not given here; conditions: C, D serine β-lactamase inhibitor closely related to relebactam; for P. aeruginosa expressing IMP-1, efflux + (MB9798) MITC95: concentration restoring susceptibility to imipenem at 2 μg/mL in the presence of a class A; for Concentration of metallo-β-lactamase inhibitor which restores susceptibility of efflux + (MB9798) strain to imipenem: imipenem at 2 μg/mL, in the presence of a class A
In short: (§3)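 Microbroth MIC tests in PAO1-background strains with fixed imipenem and/or ceftazidime, usually at the CLSI breakpoint, plus fixed class A/C β-lactamase inhibitor against AmpC. MBL inhibitor titrated; concentration restoring susceptibility recorded and compared as fold difference between efflux+ MB9798 and efflux− MB9799.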

[5] = system: Pseudomonas aeruginosa efflux− (MB9799), IMP-1; format: cell-based; conditions: C, D serine β-lactamase inhibitor closely related to relebactam; for P. aeruginosa expressing IMP-1, efflux − (MB9799) MITC95: concentration restoring susceptibility to imipenem at 2 μg/mL in the presence of a class A; for Concentration of metallo-β-lactamase inhibitor which restores susceptibility of efflux − (MB9799) strain to imipenem: imipenem at 2 μg/mL, in the presence of a class A
In short: as §3

[6] = system: Pseudomonas aeruginosa MB9798 vs MB9799
In short: as §3

[7] = fluorescence assay, read-out: IMP-1 IC50
[8] = ratio MITC95 PA_9798/MITC95 PA_9799
[9] = fluorescence assay, read-out: VIM-1 IC50
[10] = fold difference between efflux+ (MB9798) and efflux− (MB9799) strains, imipenem at 2 μg/mL

NDM-1, sequence (C7C422 whole entry, looked up, species assumed): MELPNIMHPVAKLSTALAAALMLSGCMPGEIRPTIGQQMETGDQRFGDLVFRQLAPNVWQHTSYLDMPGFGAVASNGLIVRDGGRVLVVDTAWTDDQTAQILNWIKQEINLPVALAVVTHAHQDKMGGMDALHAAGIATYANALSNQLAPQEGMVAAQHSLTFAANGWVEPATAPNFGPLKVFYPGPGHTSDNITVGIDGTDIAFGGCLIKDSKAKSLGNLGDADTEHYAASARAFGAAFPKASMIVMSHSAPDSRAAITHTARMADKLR
IMP-1, sequence (P52699 whole entry, looked up, species assumed): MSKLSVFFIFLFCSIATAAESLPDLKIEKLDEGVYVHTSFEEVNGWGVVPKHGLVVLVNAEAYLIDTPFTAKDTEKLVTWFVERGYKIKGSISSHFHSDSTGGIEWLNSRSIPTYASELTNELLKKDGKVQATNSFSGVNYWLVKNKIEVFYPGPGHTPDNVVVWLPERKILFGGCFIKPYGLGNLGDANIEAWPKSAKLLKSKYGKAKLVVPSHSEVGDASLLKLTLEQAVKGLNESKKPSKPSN

Row | Structure (SMILES) | IC50 (IMP-1; [7]) | IC50 (NDM-1) | IC50 (VIM-1; VIM-1 IC50, fluorescence assay) | Escherichia coli MITC95 [1] | Klebsiella pneumoniae MITC95 [2] | Serratia marcescens MITC95 [3] | P. aeruginosa expressing IMP-1, efflux + (MB9798) MITC95 [4] | P. aeruginosa expressing IMP-1, efflux − (MB9799) MITC95 [5] | Efflux ratio [6, 8] | IC50 (VIM-1; [9]) | IC50 (IMP-1; IMP-1 IC50, fluorescence assay) | Concentration of metallo-β-lactamase inhibitor which restores susceptibility of efflux + (MB9798) strain to imipenem [4] | Concentration of metallo-β-lactamase inhibitor which restores susceptibility of efflux − (MB9799) strain to imipenem [5] | Efflux ratio [6, 10]
1 | NCc1nc2c(-c3ccc(S(=O)(=O)N[C@@H](CN)CO)c(S(N)(=O)=O)c3-c3nn[nH]n3)cccc2s1 [Example 381, (S)—N1-(1-amino-3-hydroxypropan-2-yl)-4-(2-(aminomethyl)benzo[d]thiazol-4-yl)-3-(2H-tetrazol-5-yl)benzene-1,2-disulfonamide] | 0.241 nM | 0.0602 nM | 0.117 nM | 0.7813 µM | 2.344 µM | 1.172 µM | 1.172 µM | 0.7813 µM | 1.50 |  |  |  |  | 
2 | NC[C@@H](CO)NS(=O)(=O)c1ccc(-c2cccc(N)n2)c(-c2nn[nH]n2)c1S(N)(=O)=O [Example 382, (S)—N1-(1-amino-3-hydroxypropan-2-yl)-4-(6-aminopyridin-2-yl)-3-(2H-tetrazol-5-yl)benzene-1,2-disulfonamide] | 0.651 nM | 0.22 nM |  | 1.563 µM | 3.125 µM | 1.563 µM | 1.563 µM | 1.563 µM | 1.00 | 0.271 nM |  |  |  | 
3 | C[C@H](CN)NS(=O)(=O)c1ccc(-c2cccc3[nH]c(CN)nc23)c(-c2nn[nH]n2)c1S(N)(=O)=O [Example 383, (R)-4-(2-(aminomethyl)-1H-benzo[d]imidazol-4-yl)-N1-(1-aminopropan-2-yl)-3-(2H-tetrazol-5-yl)benzene-1,2-disulfonamide] | 0.536 nM | 0.0568 nM |  | 0.7813 µM | 1.563 µM | 1.563 µM | 0.7813 µM | 0.7813 µM | 1.00 | 0.102 nM |  |  |  | 
4 | C[C@H](CN)NS(=O)(=O)c1ccc(-c2cccn3ccnc23)c(-c2nn[nH]n2)c1S(N)(=O)=O [Example 384, (R)—N1-(1-aminopropan-2-yl)-4-(imidazo[1,2-a]pyridin-8-yl)-3-(2H -tetrazol-5-yl) benzene-1,2-disulfonamide] | 0.0539 nM | 0.0233 nM |  | 1.563 µM | 3.125 µM | 3.125 µM | 0.7813 µM | 1.563 µM | 0.50 | 0.0539 nM |  |  |  | 
5 | NCc1nc2c(-c3ccc(S(=O)(=O)NC(CN)CN)c(S(N)(=O)=O)c3-c3nn[nH]n3)cccc2[nH]1 [Example 385, 4-(2-(Aminomethyl)-1H-benzo[d]imidazol-4-yl)-N1-(1,3-diaminopropan-2-yl)-3-(2H-tetrazol-5-yl)benzene-1,2-disulfonamide] | 0.782 nM | 0.111 nM |  | 0.7813 µM | 1.563 µM | 0.7813 µM | 0.7813 µM | 0.7813 µM | 1.00 | 0.13 nM |  |  |  | 
6 | NCC(CN)NS(=O)(=O)c1ccc(-c2cccn3ccnc23)c(-c2nn[nH]n2)c1S(N)(=O)=O [Example 386, N1-(1,3-diaminopropan-2-yl)-4-(imidazo[1,2-c]pyridin-8-yl)-3-(2H-tetrazol-5-yl) benzene-1,2-disulfonamide] | 0.141 nM | 0.133 nM | 0.168 nM | 0.9766 µM | 3.125 µM | 1.563 µM | 1.563 µM | 1.563 µM | 1.00 |  |  |  |  | 
7 | C[C@@H](CN)NS(=O)(=O)c1ccc(-c2cccc3sc(N)nc23)c(-c2nn[nH]n2)c1S(N)(=O)=O [Example 389, 4-(2-amino-1,3-benzothiazol-4-yl)-N^1-[(1S)-2-amino-1-methylethyl]-3-(2H-tetrazol-5-yl)benzene-1,2-disulfonamide] |  | 0.289 nM | 0.744 nM | 3.125 µM | 3.125 µM | 3.125 µM |  |  |  |  | 1.81 nM | 1.563 | 1.563 | 1.00
8 | C[C@@H](N)CNS(=O)(=O)c1ccc(-c2cccc3sc(N)nc23)c(-c2nn[nH]n2)c1S(N)(=O)=O [Example 390, 4-(2-amino-1,3-benzothiazol-4-yl)-N^1-[(2R)-2-aminopropyl]-3-(2H-tetrazol-5-yl)benzene-1,2-disulfonamide] |  | 0.0605 nM | 0.33 nM | 3.125 µM | 3.125 µM | 1.563 µM |  |  |  |  | 0.341 nM | 0.7813 | 1.563 | 0.50
9 | C[N+](C)(C)CCNS(=O)(=O)c1ccc(-c2cccc3sc(N)nc23)c(-c2nnn[nH]2)c1S(N)(=O)=O.O=C([O-])C(F)(F)F [Example 391, 2-({[4-(2-amino-1,3-benzothiazol-4-yl)-2-sulfamoyl-3-(1H-tetrazol-5-yl)phenyl]sulfonyl}amino)-N,N,N-trimethylethanaminium trifluoroacetate] |  | 0.028 nM |  | 3.125 µM | 6.25 µM | 3.125 µM |  |  |  | 0.0965 nM | 0.209 nM | 1.563 | 1.563 | 1.00
10 | C[C@H](CN)NS(=O)(=O)c1ccc(-c2ccc(N)nc2)c(-c2nn[nH]n2)c1S(N)(=O)=O [Example 393, (R)—N^1-(1-aminopropan-2-yl)-4-(6-aminopyridin-3-yl)-3-(2H-tetrazol-5-yl)benzene-1,2-disulfonamide] | 0.0629 nM | 0.0219 nM |  | 0.651 µM | 2.083 µM | 1.042 µM |  |  |  | 0.0454 nM |  | 0.7813 | 1.042 | 0.75
11 | C[C@@H](CN)NS(=O)(=O)c1ccc(-c2ccc(N)nc2)c(-c2nn[nH]n2)c1S(N)(=O)=O [Example 394] | 2 nM | 1.89 nM |  | 0.3906 µM | 3.125 µM | 1.563 µM |  |  |  | 1.24 nM |  | 3.125 | 1.563 | 2.00
12 | C[C@H](CN)NS(=O)(=O)c1ccc(-c2cccc3c2nc(N)n3C)c(-c2nn[nH]n2)c1S(N)(=O)=O [Example 395] | 0.156 nM | 0.0315 nM | 0.108 nM | 0.3906 µM | 1.563 µM | 1.563 µM |  |  |  |  |  | 1.563 | 0.7813 | 2.00
